From patent US8426408B2, “Pyrimidine inhibitors of kinases” (AbbVie Inc., priority 2009, dated 2013)

Columns and labels:
[1] = target: T1, Aurora A (Homo sapiens, UniProt O14965); assay: Aurora A enzyme inhibition (time-resolved fluorescence, STK substrate-2); assay type: biochemical; settings: 1 mM ATP
T1 sequence (O14965 1-403): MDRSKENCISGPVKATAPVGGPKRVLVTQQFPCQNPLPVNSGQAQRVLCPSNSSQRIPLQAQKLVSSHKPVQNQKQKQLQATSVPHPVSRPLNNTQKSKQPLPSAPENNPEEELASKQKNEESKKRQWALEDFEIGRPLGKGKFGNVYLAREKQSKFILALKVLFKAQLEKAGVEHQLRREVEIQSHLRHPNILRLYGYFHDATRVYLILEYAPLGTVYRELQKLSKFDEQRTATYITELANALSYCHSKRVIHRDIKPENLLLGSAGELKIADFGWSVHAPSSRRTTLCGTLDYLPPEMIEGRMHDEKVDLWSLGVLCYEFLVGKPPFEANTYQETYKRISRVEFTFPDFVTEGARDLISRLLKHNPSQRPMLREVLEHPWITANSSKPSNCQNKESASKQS
Summary of the method: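 Phosphorylation of biotinylated STK substrate-2 at 1 mM ATP, 1 h, Hepes buffer pH 7.4 (MgCl2, sodium orthovanadate, Triton X-100). After EDTA quench, 665/615 nm time-resolved fluorescence ratio read via europium anti-phospho antibody and SA-XL665; IC50 from exponential fit versus inhibitor concentration.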

[2] = target: T2, Aurora B (Homo sapiens, UniProt Q96GD4); assay: Aurora B enzyme inhibition (time-resolved fluorescence, histone H3 peptide); assay type: biochemical; settings: 1 mM ATP
T2 construct: Active Aurora B enzyme (recombinant residues 1-344)
T2 sequence (Q96GD4 whole entry, the tested form may be a part): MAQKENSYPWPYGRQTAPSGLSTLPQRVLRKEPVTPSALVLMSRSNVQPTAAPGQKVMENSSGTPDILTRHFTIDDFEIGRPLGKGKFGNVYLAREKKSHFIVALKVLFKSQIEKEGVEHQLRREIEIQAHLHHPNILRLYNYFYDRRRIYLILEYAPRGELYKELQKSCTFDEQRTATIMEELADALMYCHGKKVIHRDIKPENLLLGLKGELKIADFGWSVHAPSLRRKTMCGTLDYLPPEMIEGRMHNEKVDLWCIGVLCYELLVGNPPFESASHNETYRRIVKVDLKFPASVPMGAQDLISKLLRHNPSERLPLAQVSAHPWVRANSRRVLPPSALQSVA
T2 sequence (Q9NQS7 826-918 partner limits assumed): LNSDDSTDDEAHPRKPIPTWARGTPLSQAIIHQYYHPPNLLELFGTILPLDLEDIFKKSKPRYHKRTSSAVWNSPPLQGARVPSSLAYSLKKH
Summary of the method: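 IC50s came from an exponential fit of inhibition against inhibitor concentration, with phosphorylation read as the 665/615 nm time-resolved fluorescence ratio after EDTA stop using Eu-anti-phospho-H3 and SA-APC. The 1 h reaction used Aurora B 1-344 plus GST-INCENP, biotin-histone H3 1-21 peptide and 1 mM ATP in pH 7.4 HEPES buffer.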

[3] = target: KDR (Homo sapiens, UniProt P35968); assay: KDR cellular assay (KDR receptor phosphorylation ELISA); assay type: cell-based; parameters: expressed in transfected cells; host or cells: 3T3 (embryonic mouse) cells; settings: KDR transfected 3T3 (embryonic mouse) cells, VEGF stimulated; read-out: IC50 inhibition of KDR phosphorylation
KDR, sequence (P35968 20-1356): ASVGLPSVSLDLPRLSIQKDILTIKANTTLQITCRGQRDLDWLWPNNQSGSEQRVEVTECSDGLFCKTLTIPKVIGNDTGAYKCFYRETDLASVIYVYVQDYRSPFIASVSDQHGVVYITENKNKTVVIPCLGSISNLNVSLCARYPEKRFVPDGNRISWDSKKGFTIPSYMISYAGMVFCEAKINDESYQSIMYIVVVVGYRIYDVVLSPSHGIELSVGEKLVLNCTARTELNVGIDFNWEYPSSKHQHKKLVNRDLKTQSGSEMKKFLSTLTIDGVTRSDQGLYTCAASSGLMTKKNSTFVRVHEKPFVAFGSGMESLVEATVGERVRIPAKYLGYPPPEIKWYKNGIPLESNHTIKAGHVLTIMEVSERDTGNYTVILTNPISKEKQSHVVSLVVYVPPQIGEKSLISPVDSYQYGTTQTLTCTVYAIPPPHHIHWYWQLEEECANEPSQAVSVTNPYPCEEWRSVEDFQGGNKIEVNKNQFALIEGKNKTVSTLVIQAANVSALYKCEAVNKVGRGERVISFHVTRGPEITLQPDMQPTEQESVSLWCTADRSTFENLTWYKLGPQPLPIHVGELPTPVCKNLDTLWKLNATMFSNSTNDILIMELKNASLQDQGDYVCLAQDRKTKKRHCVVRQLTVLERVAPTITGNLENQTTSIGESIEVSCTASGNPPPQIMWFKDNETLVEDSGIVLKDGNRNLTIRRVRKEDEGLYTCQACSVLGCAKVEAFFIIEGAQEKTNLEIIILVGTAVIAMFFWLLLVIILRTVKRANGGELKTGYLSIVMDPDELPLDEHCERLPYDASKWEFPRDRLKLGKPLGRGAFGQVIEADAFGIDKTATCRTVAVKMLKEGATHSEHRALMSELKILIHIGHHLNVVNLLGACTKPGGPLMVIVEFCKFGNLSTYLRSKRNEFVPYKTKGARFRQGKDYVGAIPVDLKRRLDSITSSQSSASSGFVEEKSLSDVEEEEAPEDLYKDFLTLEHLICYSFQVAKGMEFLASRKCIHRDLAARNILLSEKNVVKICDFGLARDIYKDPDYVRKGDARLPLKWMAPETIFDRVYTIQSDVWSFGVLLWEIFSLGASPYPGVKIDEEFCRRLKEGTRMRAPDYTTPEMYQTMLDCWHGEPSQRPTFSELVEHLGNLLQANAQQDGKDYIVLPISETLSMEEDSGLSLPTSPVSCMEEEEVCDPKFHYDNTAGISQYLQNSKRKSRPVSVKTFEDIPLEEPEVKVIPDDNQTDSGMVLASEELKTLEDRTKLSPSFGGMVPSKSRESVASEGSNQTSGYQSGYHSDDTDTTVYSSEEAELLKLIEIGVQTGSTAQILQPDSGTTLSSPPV
Summary of the method: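 Phospho-KDR measured by capture ELISA (anti-KDR coat, biotinylated detection, streptavidin-HRP, 450 nm) in lysates of KDR-expressing 3T3 mouse fibroblasts. Cells saw compound 20 min at 37° C before 10 min VEGF challenge (100 ng/ml solution); IC50 from non-linear regression of half-log dose series.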

Ki [1] | Ki [2] | IC50 [3] | Structure (SMILES)
< 0.1 µM | < 0.1 µM | < 0.1 µM | CN1CCN(CCn2cc(Nc3ncc(Br)c(N[C@H]4[C@@H](C(N)=O)[C@@H]5C=C[C@H]4C5)n3)cn2)CC1 [Example 94, (1S,2S,3R,4R)-3-{[5-bromo-2-({1-[2-(4-methylpiperazin-1-yl)ethyl]-1H-pyrazol-4-yl}amino)pyrimidin-4-yl]amino}bicyclo[2.2.1]hept-5-ene-2-carboxamide]
< 0.1 µM | < 0.1 µM | < 0.1 µM | NC(=O)[C@@H]1[C@H](Nc2nc(Nc3cnn(C4CCNCC4)c3)ncc2Br)[C@H]2C=C[C@@H]1C2 [Example 95, (1S,2S,3R,4R)-3-[(5-bromo-2-{[1-(piperidin-4-yl)-1H-pyrazol-4-yl]amino}pyrimidin-4-yl)amino]bicyclo[2.2.1]hept-5-ene-2-carboxamide]
< 0.1 µM | < 0.1 µM | < 0.1 µM | COCCn1cc(Nc2ncc(Cl)c(N[C@H]3[C@@H](C(N)=O)[C@@H]4C=C[C@H]3C4)n2)cn1 [Example 96, (1S,2S,3R,4R)-3-[(5-chloro-2-{[1-(2-methoxyethyl)-1H-pyrazol-4-yl]amino}pyrimidin-4-yl)amino]bicyclo[2.2.1]hept-5-ene-2-carboxamide]
